Assay results from ChEMBL document CHEMBL1201862, “PubChem BioAssay data set” (2004).
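Step 1: Grow cells in 96-well plates. Step 2: Expose to compound for 48 hours at 5 concentrations. Step 3: Interpolate endpoints linearly; if unreached, use highest concentration. GI50 marks 50% less growth.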 The source made the active and inactive calls. Cut-off read from the data, not from the text of the source: active = GI50 up to about 1.1 µM and inactive = higher.

Columns and labels:
Test in all cases: inhibition of tumour cell growth, NCI panel, 48 h
A498 = test system: A498
RPMI-8226 = test system: RPMI-8226
NCI-H23 = test system: NCI-H23
SNB-75 = test system: SNB-75
SF-268 = test system: SF-268
UACC-257 = test system: UACC-257
Hs-578T = test system: Hs-578T
SK-MEL-28 = test system: SK-MEL-28
TK-10 = test system: TK-10
786-0 = test system: 786-0
NCI-H226 = test system: NCI-H226
NCI-H460 = test system: NCI-H460
OVCAR-8 = test system: OVCAR-8
A549 = test system: A549
HT-29 = test system: HT-29
LOX IMVI = test system: LOX IMVI
SK-MEL-5 = test system: SK-MEL-5
COLO 205 = test system: COLO 205
SK-OV-3 = test system: SK-OV-3
KM12 = test system: KM12

| Compound | GI50 (A498) | GI50 (RPMI-8226) | GI50 (NCI-H23) | GI50 (SNB-75) | GI50 (SF-268) | GI50 (UACC-257) | GI50 (Hs-578T) | GI50 (SK-MEL-28) | GI50 (TK-10) | GI50 (786-0) | GI50 (NCI-H226) | GI50 (NCI-H460) | GI50 (OVCAR-8) | GI50 (A549) | GI50 (HT-29) | GI50 (LOX IMVI) | GI50 (SK-MEL-5) | GI50 (COLO 205) | GI50 (SK-OV-3) | GI50 (KM12) |
| --- | --- | --- | --- | --- | --- | --- | --- | --- | --- | --- | --- | --- | --- | --- | --- | --- | --- | --- | --- | --- |
| Nc1nc(Cl)cc(OCC2(CO)CC=CC2)n1 | 90.6 µM (inactive) | > 100 µM (inactive) | > 100 µM (inactive) | 27.1 µM (inactive) | > 100 µM (inactive) | > 100 µM (inactive) | > 100 µM (inactive) | > 100 µM (inactive) | > 100 µM (inactive) | > 100 µM (inactive) | > 100 µM (inactive) | > 100 µM (inactive) | > 100 µM (inactive) | > 100 µM (inactive) | > 100 µM (inactive) | > 100 µM (inactive) | > 100 µM (inactive) |  |  |  |
| CN1C/C(=C\c2cccs2)C(=O)/C(=C/c2cccs2)C1 | 19.7 µM (inactive) | 5.53 µM (inactive) | 31.2 µM (inactive) |  | 46.7 µM (inactive) | 30 µM (inactive) | > 100 µM (inactive) | 52.2 µM (inactive) | 38.1 µM (inactive) | 17.7 µM (inactive) | > 100 µM (inactive) | 24.3 µM (inactive) | 20 µM (inactive) | 21.9 µM (inactive) | 18.7 µM (inactive) | 16.3 µM (inactive) | 38.5 µM (inactive) | 24.4 µM (inactive) | 33.2 µM (inactive) | 21 µM (inactive) |
| Cc1cc(NCC2CC/C(=C\C=C\c3ccccc3)C2=O)no1 (centres undefined) | 51.8 µM (inactive) | 19.5 µM (inactive) | > 100 µM (inactive) |  | > 100 µM (inactive) | 57.8 µM (inactive) | 85.1 µM (inactive) | > 100 µM (inactive) | 84.9 µM (inactive) | > 100 µM (inactive) | 49.8 µM (inactive) | > 100 µM (inactive) | > 100 µM (inactive) | > 100 µM (inactive) | > 100 µM (inactive) | > 100 µM (inactive) | 94.4 µM (inactive) | > 100 µM (inactive) | > 100 µM (inactive) | 41.8 µM (inactive) |
| CC(=O)N[C@@H](Cc1ccc(O)cn1)C(=O)NCc1cccc(Cl)c1 | > 100 µM (inactive) | > 100 µM (inactive) | > 100 µM (inactive) |  | > 100 µM (inactive) | > 100 µM (inactive) | > 100 µM (inactive) | > 100 µM (inactive) | > 100 µM (inactive) | > 100 µM (inactive) | > 100 µM (inactive) | > 100 µM (inactive) |  | > 100 µM (inactive) | > 100 µM (inactive) | > 100 µM (inactive) | > 100 µM (inactive) | > 100 µM (inactive) | > 100 µM (inactive) | > 100 µM (inactive) |
| CNC(=S)/N=c1/sc(NC)nc2sc3c(c12)CCCC3 | > 100 µM (inactive) | > 100 µM (inactive) | > 100 µM (inactive) |  | 34.6 µM (inactive) | > 100 µM (inactive) | 29 µM (inactive) | > 100 µM (inactive) | > 100 µM (inactive) | 38.1 µM (inactive) | > 100 µM (inactive) | > 100 µM (inactive) |  |  | > 100 µM (inactive) | > 100 µM (inactive) | > 100 µM (inactive) | > 100 µM (inactive) | 64.6 µM (inactive) | > 100 µM (inactive) |
| CC(=O)Nc1ccc(-c2nc3ccccc3s2)cc1O | 69.7 µM (inactive) | 21 µM (inactive) | 24.5 µM (inactive) | 24.8 µM (inactive) | 27.8 µM (inactive) | 31.6 µM (inactive) | 50.1 µM (inactive) | 80.5 µM (inactive) | 32.4 µM (inactive) | 41.1 µM (inactive) | 16.9 µM (inactive) | 28.6 µM (inactive) | 19.8 µM (inactive) | 40.1 µM (inactive) | 34.7 µM (inactive) | 41.3 µM (inactive) | 20.4 µM (inactive) | 33.8 µM (inactive) |  | 17.2 µM (inactive) |
| COc1ccccc1NCc1nnc(CCCCCCCCc2nnc(CNc3ccccc3OC)o2)o1 | > 100 µM (inactive) | > 100 µM (inactive) | > 100 µM (inactive) | > 100 µM (inactive) | > 100 µM (inactive) | > 100 µM (inactive) | > 100 µM (inactive) |  | > 100 µM (inactive) | > 100 µM (inactive) |  | > 100 µM (inactive) | > 100 µM (inactive) | > 100 µM (inactive) | > 100 µM (inactive) | > 100 µM (inactive) | > 100 µM (inactive) | > 100 µM (inactive) | > 100 µM (inactive) | > 100 µM (inactive) |
| C/C(CC1SCCCS1)=C(/C)CC1SCCCS1 | > 100 µM (inactive) | > 100 µM (inactive) | > 100 µM (inactive) | > 100 µM (inactive) | > 100 µM (inactive) |  | > 100 µM (inactive) | > 100 µM (inactive) | > 100 µM (inactive) | > 100 µM (inactive) | > 100 µM (inactive) | > 100 µM (inactive) | > 100 µM (inactive) | > 100 µM (inactive) | > 100 µM (inactive) | > 100 µM (inactive) | > 100 µM (inactive) | > 100 µM (inactive) |  | > 100 µM (inactive) |
| C=C(C)[C@H]1CC23C(=O)C(C(=O)C(C)C)=C(O)[C@](C)(C[C@H]2C1(C)C)C3=O [LALIBINONE B] |  | 12.8 µM (inactive) | 18.9 µM (inactive) |  | 18.1 µM (inactive) | 24 µM (inactive) | 23 µM (inactive) | 15 µM (inactive) | 20.2 µM (inactive) | 15.6 µM (inactive) | 16.2 µM (inactive) | 17 µM (inactive) | 17.9 µM (inactive) | 20.3 µM (inactive) | 11.9 µM (inactive) | 20.7 µM (inactive) | 17.7 µM (inactive) | 11.1 µM (inactive) |  | 19.6 µM (inactive) |
| COc1ccc2c(c1)c1c(n2CCN2CCCCC2)-c2ccccc2CC1 |  | 14.7 µM (inactive) | 17.7 µM (inactive) | 14.6 µM (inactive) | 13.8 µM (inactive) | 17.9 µM (inactive) | 13.5 µM (inactive) | 17.9 µM (inactive) | 14 µM (inactive) | 18.6 µM (inactive) | 5.2 µM (inactive) | 14.5 µM (inactive) | 14.9 µM (inactive) | 16.4 µM (inactive) | 4.48 µM (inactive) | 21.3 µM (inactive) | 15.9 µM (inactive) | 13.6 µM (inactive) | 19.7 µM (inactive) | 14 µM (inactive) |
| COc1cc(S(=O)(=O)Nc2ccc(-c3csc(/N=C\c4cccc(Oc5ccccc5)c4)n3)cc2)ccc1Cl |  | 21.6 µM (inactive) | 45.9 µM (inactive) | 30.8 µM (inactive) | 34.6 µM (inactive) |  | 60.4 µM (inactive) | 36.1 µM (inactive) |  | 5.58 µM (inactive) | 47.5 µM (inactive) |  | 25.6 µM (inactive) | 4.62 µM (inactive) | 9.75 µM (inactive) | 19.3 µM (inactive) | 27.9 µM (inactive) | 34.7 µM (inactive) |  | 31.8 µM (inactive) |
| COc1cc2c(c(O)c1O)C(=O)C1CCC(=O)N1C2c1cccc2ccccc12 (centres undefined) | > 50 µM (inactive) | > 50 µM (inactive) | > 50 µM (inactive) | > 50 µM (inactive) | > 50 µM (inactive) | > 50 µM (inactive) | > 50 µM (inactive) | > 50 µM (inactive) |  | > 50 µM (inactive) | > 50 µM (inactive) | > 50 µM (inactive) | > 50 µM (inactive) | 30.3 µM (inactive) | > 50 µM (inactive) |  |  | > 50 µM (inactive) | > 50 µM (inactive) | > 50 µM (inactive) |
| COc1cc(C2c3cc4c(cc3[C@@H](Nc3ccc(F)cc3)C3CO[C@@H](O)[C@H]23)OCO4)cc(OC)c1O (some centres undefined) |  | 2.26 µM (inactive) |  | 4.83 µM (inactive) | 6.71 µM (inactive) | 20.7 µM (inactive) | 0.697 µM (active) | 7.85 µM (inactive) | 12.3 µM (inactive) | 4.61 µM (inactive) |  | 0.169 µM (active) | 6.01 µM (inactive) | 0.853 µM (active) |  |  | 6.18 µM (inactive) | 5.78 µM (inactive) | 8.65 µM (inactive) | 5.66 µM (inactive) |
| C#C[C@]1(O)CC[C@H]2[C@@H]3CCC4=C/C(=N/CCOC(=O)c5cccc6c(=O)c7ccccc7[nH]c56)CC[C@@H]4[C@H]3CC[C@@]21C | 58.6 µM (inactive) |  | 32.7 µM (inactive) |  | 53.6 µM (inactive) | 43.2 µM (inactive) | 35.2 µM (inactive) | 47.6 µM (inactive) | 45.8 µM (inactive) | 42.4 µM (inactive) | 76.2 µM (inactive) | 32.7 µM (inactive) | 21 µM (inactive) | 41.7 µM (inactive) | 64.3 µM (inactive) | 28.3 µM (inactive) | 28 µM (inactive) | 37.1 µM (inactive) | 51.5 µM (inactive) | 30.6 µM (inactive) |
| CC(=O)OCc1cccc(O)c1C(=O)CCC=C(C)C | > 100 µM (inactive) | > 100 µM (inactive) | > 100 µM (inactive) |  | > 100 µM (inactive) | > 100 µM (inactive) | > 100 µM (inactive) | > 100 µM (inactive) | > 100 µM (inactive) | > 100 µM (inactive) | > 100 µM (inactive) | > 100 µM (inactive) |  | > 100 µM (inactive) | > 100 µM (inactive) | 46.9 µM (inactive) | > 100 µM (inactive) | > 100 µM (inactive) | > 100 µM (inactive) | > 100 µM (inactive) |
